This assay has as its system B. cinerea. Put plainly: In-vitro fungal growth, O.D at 600 nm. The format is cell-based, Botrytis cinerea. Here is the method:
To test the effect of commonly used fungicide on B. cinerea growth, ‘Procloraz’ (Sportak, Bayer Cropscience LLC, Monheim am Rhein, Germany) or ‘fludioxonil’ (scholar, Hod-Hasharon, Israel) fungicide were diluted in 1% SMB to final concentrations of 1-1000 ppb or 0.01-1,000 ppb, respectively.
The plates were incubated at room temperature and O.D measurement at 600 nm was taken every hour for 48-72 hours using Synergy LX plate reader (BioTek, Winooski, Vermont, United States). The absorbance of three wells of repeats was averaged together and was background-corrected by subtracting the average absorbance of media alone at time zero (Galsurker et al., 2020; Langvad, 1999). Growth inhibition percentage was calculated (O.D in control well−O.D in treatment well)/O.D in control well×100) (Meletiadis et al., 2003). Coefficient treatment interaction (CTI) was calculated as follows: CTI=AB/(A×B). AB is the ratio of the treatment combination to control; A, or B is the ratio of the single treatment to control. Coefficient treatment interaction is considered as synergistic when CTI<1 (Chen et al., 2014).

SMILES strings stand for the structures.

Turning to `CCCN(CCOc1c(Cl)cc(Cl)cc1Cl)C(=O)n1ccnc1` [Prochloraz, prochloraz], the “fungal growth (O.D)” value (1-1,000 ppb in growth media) was “dose-dependent reduction of fungal growth”.
For the compound `N#Cc1c[nH]cc1-c1cccc2c1OC(F)(F)O2` [Fludioxonil], the B. cinerea growth entry (0.01-1,000 ppb, data not shown) is “reduced B. cinerea growth in a non-linear manner”.
For `CC(C)[C@@H](C)/C=C/[C@@H](C)[C@H]1CC[C@H]2C3=CC=C4C[C@@H](O)CC[C@]4(C)[C@H]3CC[C@]12C` [ergosterol], the fungal growth result (ergosterol added to control) is “did not alter fungal growth”.

For the origin of these results see patent US20250127180A1, “PARTICLES COMPRISING DOUBLE STRANDED RNA AND USE OF SAME IN AGRICULTURE” (priority 2022, published 2025).
